The values that follow come from PubChem BioAssay AID720588 (Broad Institute, 2013).

SMILES strings stand for the structures. Active and inactive are the calls of the source.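 The calls were made as follows: active = fitted curve falls past a set limit of signal loss at no more than twice the top dose; inconclusive = flat fit between 30 and 70% signal loss, or poor fit; inactive = signal rise, flat within 30%, or crossing too high.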

The nature of the first assay: ATP-based viability loss in HEK293T cells – cell-based, CellTiter-Glo luminescence, cherry-pick, set 3, cytotoxicity control, dose response (AID 720588). As to conditions: HEK293T viability, CellTiter-Glo ATP luminescence, 72 h; at 21 µM (top of the series). In general terms: In ATP-based viability assays light output follows the ATP content of the culture.
In the case of `COc1ccc(CN(C)C[C@H]2Oc3ccc(NC(=O)CCCCCC(=O)Nc4ccccc4N)cc3CC(=O)N([C@H](C)CO)C[C@H]2C)cc1`, the activity change, negative = cytotoxicity was -29.4% (inactive).

Staying with this assay, now noted: HEK293T viability, CellTiter-Glo ATP luminescence, 72 h; at 23.5 µM (top of the series).
On to `CCCNC(=O)N1[C@H](C#N)[C@H](c2ccc(C#Cc3cccc(F)c3)cc2)[C@H]1CO`, for which the activity change, negative = cytotoxicity was -0.501% (inactive).
With `COC(=O)C[C@@H]1CC[C@H]2[C@H](COc3ccc(NC(=O)Nc4ccc(C#N)cc4)cc3C(=O)N2C)O1`, the activity change, negative = cytotoxicity was 17.6% (inactive).
Regarding `COc1ccccc1NC(=O)N1[C@@H]2CNC[C@H]1[C@@H]2c1ccc(-c2ccc(C#N)cc2)cc1`, the activity change, negative = cytotoxicity was -30.3% (inactive).

The same assay, now with this note: HEK293T viability, CellTiter-Glo ATP luminescence, 72 h; at 26 µM (top of the series).
With `CCN(CC)c1ccc(C2NC(=O)c3ccccc3N2)cc1` (configuration not stated), the activity change, negative = cytotoxicity is -18.3% (inactive).
Regarding `Nc1ccc2c(c1)OC1(CCCC1)O2`, the activity change, negative = cytotoxicity was -16.1% (inactive).
In the case of `Cc1ccc(-c2ccc3c(c2)O[C@@H](CN(C)C(=O)Nc2ccc(F)cc2)[C@H](C)CN([C@@H](C)CO)S3(=O)=O)cc1`, the activity change, negative = cytotoxicity was 48.8% (inactive).
Take `CN1C(=O)c2cc(NC(=O)c3ccc(C(F)(F)F)cc3)ccc2OC[C@@H]2O[C@@H](CC(=O)NC3Cc4ccccc4C3)CC[C@H]21`: the activity change, negative = cytotoxicity was -32.5% (inactive).
The same measure, in the same setting: the same measure for `C[C@H]1CN([C@@H](C)CO)C(=O)Cc2cc(NC(=O)C3CC3)ccc2O[C@H]1CN(C)S(=O)(=O)c1ccc(Cl)cc1`: -9.99% (inactive); for `O=C(COC(=O)c1ccc[nH]c1=O)Nc1ccc(N2CCCCC2)cc1`: -10.3% (inactive); for `CO[C@H]1CN(C)C(=O)c2cc(NC(=O)NC(C)C)ccc2OC[C@H](C)N(Cc2ccc(-c3ccccn3)cc2)C[C@@H]1C`: -13.6% (inactive).
Take `O=C1NC2C(=CC(O)C(O)C2O)c2cc3c(cc21)OCO3` (configuration not stated): the activity change, negative = cytotoxicity was -41.4% (inactive).
As for `Cc1c(Cc2ccc3c(c2)OCO3)sc(NC(=O)C(C)(C)C)c1C#N`, the activity change, negative = cytotoxicity was -13.7% (inactive).
In the case of `COC(=O)C[C@@H]1CC[C@@H]2[C@H](COc3ccc(NC(=O)Nc4cccc(C#N)c4)cc3C(=O)N2C)O1`, the activity change, negative = cytotoxicity was 53.6% (inactive).
In the case of `C[C@H](CO)N1C[C@H](C)[C@H](CN(C)Cc2ccc(C(F)(F)F)cc2)Oc2c(NS(=O)(=O)c3ccc(Cl)cc3)cccc2C1=O`, the activity change, negative = cytotoxicity was -9.18% (inactive).
As for `Cc1sc2nc(CN3CCC(C)CC3)nc(Cl)c2c1C`, the activity change, negative = cytotoxicity was 5.44% (inactive).
Consider `COc1ccc(/C=C2\SC(=S)N(CCCC(=O)Nc3ccc(O)cc3)C2=O)cc1`, for which the activity change, negative = cytotoxicity is -27.6% (inactive).
Regarding `Cc1cccc(NC(=O)CN2CCN(C(=O)CNC(=O)c3ccc(-c4ccccc4)cc3)CC2)c1C`, the activity change, negative = cytotoxicity was -18.2% (inactive).
Regarding `O=C1NC(=O)N(CCc2ccc(F)cc2)C(=O)/C1=C/C=C/c1ccccc1`, the activity change, negative = cytotoxicity was -10.7% (inactive).
For `COc1cccc(Sc2ccccc2/C=N/NC(N)=O)c1`, the activity change, negative = cytotoxicity is -10.9% (inactive).
Take `COC(=O)C(CC#Cc1ccc2c(c1)[C@]1(C(=O)N2)[C@H](c2ccc(OCCO)cc2)N2[C@H](c3ccccc3)[C@H](c3ccccc3)OC(=O)[C@H]2[C@@H]1C(=O)N1CCN(c2ncccn2)CC1)C(=O)OC`: the activity change, negative = cytotoxicity was 1.09% (inactive).
As to `CCc1ccc(/C=C2\SC(=S)N(CCCC(=O)Nc3cc(C)on3)C2=O)cc1`, the activity change, negative = cytotoxicity was -27.1% (inactive).
On to `C/C(=N\OCc1cccc(C(=O)O)c1)c1ccc(Cl)cc1`, for which the activity change, negative = cytotoxicity is -6.62% (inactive).
Regarding `CCOc1ccc(OCc2ccc(C(=O)NN=Cc3ccc[nH]3)cc2)cc1`, the activity change, negative = cytotoxicity was -39.9% (inactive).
Same read-out and setting: the value for `C[C@H](CO)N1C[C@H](C)[C@H](CN(C)Cc2ccc(Oc3ccccc3)cc2)Oc2ccc(NC(=O)CCCCCC(=O)Nc3ccccc3N)cc2CC1=O` was -19.4% (inactive); that for `O=C(CNC(c1ccccc1)c1ccccc1)Nc1ccccc1-c1ccccc1` was -23.7% (inactive).
On the same count and under the same terms, the same measure for `C[C@@H]1CN([C@@H](C)CO)C(=O)c2cccc(NC(=O)CCCCCC(=O)Nc3ccccc3N)c2O[C@@H]1CN(C)Cc1ccc(Oc2ccccc2)cc1`: -1.35% (inactive); for `C[C@H]1CN([C@@H](C)CO)C(=O)c2cccc(NC(=O)CCCCCC(=O)Nc3ccccc3N)c2O[C@@H]1CN(C)Cc1ccc2c(c1)OCO2`: -20.1% (inactive).
Turning to `CCc1ccc(/C=C2\SC(=S)N(CCCC(=O)NC3=NCCS3)C2=O)cc1`, the activity change, negative = cytotoxicity is -17.5% (inactive).
For the molecule `CCCN1C(=O)/C(=C/c2nc3ccccc3c(=O)[nH]2)c2ccccc21`, the activity change, negative = cytotoxicity is -9.06% (inactive).
Turning to `O=C1c2ccccc2C(=O)N1CCCCNc1ccccc1`, the activity change, negative = cytotoxicity is 4.32% (inactive).
For `COc1ccc(NC(=O)c2cc3ccccc3oc2=O)cc1`, the activity change, negative = cytotoxicity is -17.4% (inactive).
For the molecule `Cc1c(Cl)cccc1NC(=O)CCC(=O)N/N=C/c1ccc[nH]1`, the activity change, negative = cytotoxicity is 12% (inactive).
Still for that read-out and setting: the same measure for `Cc1noc(C)c1NC(=O)Nc1ccc2c(c1)CC(=O)N([C@H](C)CO)C[C@@H](C)[C@@H](CN(C)Cc1ccc(Cl)c(Cl)c1)O2`: 56.7% (inactive); for `CCOC(=O)Cc1csc(NC(=S)NC(=O)c2ccc(C)cc2)n1`: -21.9% (inactive); for `CCc1ccc(/C=C2\SC(=S)N(CCC(=O)Nc3cc(C)on3)C2=O)cc1`: 5.29% (inactive).
On to `CC(=O)Nc1ccc(OCC(=O)N(CC(C)C)C2CCS(=O)(=O)C2)cc1` (configuration not stated), for which the activity change, negative = cytotoxicity is 10.7% (inactive).
Turning to `CN(C)Cc1c(O)ccc2c1O/C(=C\C=C\c1ccccc1)C2=O`, the activity change, negative = cytotoxicity was -32.1% (inactive).
On the same count and under the same terms, the value for `CCOc1cc(N2CCC(O)CC2)ccc1Nc1ncc2c(n1)N(C)c1ccccc1C(=O)N2C` was 22.8% (inactive).
In the case of `Cc1ccsc1/C=N/Nc1ccc(C(=O)O)cc1`, the activity change, negative = cytotoxicity is -12.7% (inactive).
With `COC(=O)C[C@@H]1CC[C@@H]2[C@@H](COc3ccc(NC(=O)Nc4cccc(F)c4)cc3C(=O)N2C)O1`, the activity change, negative = cytotoxicity is -28.1% (inactive).
Turning to `COc1ccc(CCCNC(=O)C2Cc3c(-c4ccc5c(c4)OCO5)ccnc3O2)cc1` (configuration not stated), the activity change, negative = cytotoxicity was -7% (inactive).
As to `N#C[C@H]1[C@H](c2ccc(-c3ccccc3F)cc2)[C@@H](CO)N1C(=O)Cc1ccccc1`, the activity change, negative = cytotoxicity is -28.3% (inactive).
In the case of `O=C(/C=C/c1cc(Br)ccc1O)c1ccco1`, the activity change, negative = cytotoxicity is -23.9% (inactive).
`C[C@@H]1CN([C@@H](C)CO)C(=O)c2cccc(NS(=O)(=O)c3ccc(F)cc3)c2O[C@@H]1CN(C)Cc1ccc(C(=O)Nc2ccccc2N)cc1`: the activity change, negative = cytotoxicity was -33.3% (inactive).
Consider `COC(=O)C[C@@H]1CC[C@@H]2[C@H](COc3ccc(NC(=O)c4cc(C)on4)cc3C(=O)N2C)O1`, for which the activity change, negative = cytotoxicity was -12.8% (inactive).
Consider `C[C@H](CO)N1C[C@H](C)[C@H](CN(C)Cc2ccc(C(=O)Nc3ccccc3N)cc2)Oc2ccc(NS(=O)(=O)c3cccs3)cc2C1=O`, for which the activity change, negative = cytotoxicity is -25.3% (inactive).
Turning to `Cc1ccc(NC(=O)COC(=O)c2ccc3c(c2)OCO3)cc1S(=O)(=O)N1CCCCC1`, the activity change, negative = cytotoxicity was -15.5% (inactive).
Take `O=C(NCc1cccnc1)C1Cc2c(-c3ccc(Cl)cc3)ccnc2O1` (configuration not stated): the activity change, negative = cytotoxicity is -17.5% (inactive).
Still for that read-out and setting: the value for `COC(=O)C[C@@H]1CC[C@@H]2[C@H](COc3ccc(NC(=O)c4ccc(F)c(F)c4)cc3C(=O)N2C)O1` was 16.7% (inactive); that for `Cc1cc(C)cc(OCC(=O)OCC(=O)Nc2cc(S(=O)(=O)N3CCOCC3)ccc2C)c1` was -14.2% (inactive); that for `COc1ccc(C(CCNCc2ccc(OC(C)C)cc2)C(C)C)cc1` (configuration not stated) was -12.5% (inactive).
Consider `Cc1ccsc1C(=O)OCC(=O)c1cc(C)n(C)c1C`, for which the activity change, negative = cytotoxicity is -19.5% (inactive).
For `N#C[C@H]1N[C@H](CO)[C@H]1c1ccc(C#Cc2ccc(F)cc2)cc1`, the activity change, negative = cytotoxicity is -13% (inactive).
Turning to `COc1cc(/C=N/NC(=O)c2csc3c2CCCC3)cc(OC)c1O`, the activity change, negative = cytotoxicity is 0.867% (inactive).
Regarding `N/C(Cc1nc(-c2ccc(F)cc2)cs1)=N\O`, the activity change, negative = cytotoxicity was -17.4% (inactive).
Still for that read-out and setting: the same measure for `CCOc1ccc(-c2noc(CCC(=O)O)n2)cc1`: -18.9% (inactive); for `Cc1[nH]c(=S)sc1Cc1ccc(Cl)c(Cl)c1`: 20.1% (inactive); for `C/C=C/c1ccc(C2[C@@H]3CN(C(=O)Cc4ccccc4)C[C@H]2N3)cc1` (some centres not stated): 18% (inactive).
Consider `Nc1ccc(-c2cc3ccccc3oc2=O)cc1`, for which the activity change, negative = cytotoxicity is -22% (inactive).
As to `O=C(NC1CCCC1)C(c1ccccc1)n1c(CSCCOc2ccccc2)nc2ccccc21` (configuration not stated), the activity change, negative = cytotoxicity is -14.3% (inactive).
`COc1ccc(C/C(N)=N/OC(C)=O)cc1OC`: the activity change, negative = cytotoxicity was -1.12% (inactive).
In the case of `COC(=O)Cc1[nH]n(-c2nc3ccccc3s2)c(=O)c1C(C)=Nc1ccc(C)cc1`, the activity change, negative = cytotoxicity was -30% (inactive).
Still for that read-out and setting: the same measure for `CN(C(=O)COC(=O)c1cc(-c2ccccc2Cl)nc2ccccc12)C1CCS(=O)(=O)C1` (configuration not stated): -26.1% (inactive).
As to `CCc1ccc(S(=O)(=O)c2ccc(-n3nc(C)cc3N)cc2)cc1`, the activity change, negative = cytotoxicity was -6.44% (inactive).
On to `CC(C)(C)c1ccc(Oc2ccc(NC(=O)c3ccccc3C(=O)O)cn2)cc1`, for which the activity change, negative = cytotoxicity is 16.5% (inactive).
Same read-out and setting: the same measure for `COC(=O)c1cccc(NC(=O)NC(=O)c2ccccc2Cl)c1`: -19% (inactive).
